In patent US4548943A, “Antiinflammatory, analgesic, or anti-primary dysmenorrheal arylmethylene- and arylmethylindenoimidazoles” (E. I. Du Pont de Nemours and Company, priority 1984, dated 1985):
Like-named read-outs stand apart in the source and are kept apart here.

Tests used:
[1] = system: phenylquinone writhing (mice); assay: Phenylquinone writhing test; assay type: in vivo, mouse (female white); details: for ED50: Mus musculus, po, read-out: PQW ED50; for PQW ED50: oral
Experimental: Phenylquinone Writhing Test
A standard procedure for detecting and comparing the analgesic activity of compounds in this series for which there is a good correlation with human efficacy is the standard phenylquinone writhing test modified from Siegmund, et al., Proc. Soc. Exp. Biol. Med., 95, 729 (1957). A test compound suspended in 1% methylcellulose was given orally to fasted (17-21 hours) female white mice, 5-20 animals per double blind test. Aqueous (0.01% phenyl-p-benzoquinone)phenylquinone, 0.20 ml per mouse, was injected intraperitoneally 6 minutes before observations were begun. […] Rev., 11, 115-145 (1947). Data for some of the compounds is summarized in Table 4 together with data for some standard analgetic antiinflammatory drugs.

[2] = system: adjuvant-induced arthritis in rats; assay: Established adjuvant-induced arthritis in rats; assay type: in vivo, rat (male Charles River Lewis); details: for Adjuvant Arthritis, decrease in paw volume from controls at dose indicated: @ 9 mg/kg; for ED50: Rattus norvegicus, read-out: Adjuvant Arthritis ED50
[3] = target: T1, bovine seminal vesicle prostaglandin synthetase (PGS) (Bos taurus, UniProt O62664); assay: Prostaglandin synthetase inhibition assay; assay type: biochemical; details: 14C-arachidonic acid 0.02 mM, pH 8.5, 10 minutes
T1 construct: purchased Miles; host or cells: bovine seminal vesicle
T1 sequence (O62664 25-600): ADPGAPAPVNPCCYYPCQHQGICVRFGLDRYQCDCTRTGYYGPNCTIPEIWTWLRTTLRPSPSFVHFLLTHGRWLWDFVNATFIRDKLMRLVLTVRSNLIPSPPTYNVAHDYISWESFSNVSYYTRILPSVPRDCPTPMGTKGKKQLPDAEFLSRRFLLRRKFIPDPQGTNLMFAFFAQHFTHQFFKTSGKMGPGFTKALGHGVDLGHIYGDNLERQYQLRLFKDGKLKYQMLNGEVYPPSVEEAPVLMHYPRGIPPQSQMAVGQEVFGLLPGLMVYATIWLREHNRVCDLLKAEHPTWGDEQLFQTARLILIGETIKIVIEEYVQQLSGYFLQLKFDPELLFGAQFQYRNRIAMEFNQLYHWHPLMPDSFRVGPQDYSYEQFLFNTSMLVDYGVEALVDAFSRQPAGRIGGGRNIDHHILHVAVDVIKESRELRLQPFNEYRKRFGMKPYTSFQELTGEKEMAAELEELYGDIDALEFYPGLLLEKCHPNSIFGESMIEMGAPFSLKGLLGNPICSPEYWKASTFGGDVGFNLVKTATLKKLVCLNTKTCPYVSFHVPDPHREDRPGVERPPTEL
Experimental: Prostaglandin Synthetase Inhibition Assay
The resulting labelled prostaglandins were isolated on small columns of Bio-Sil® A silica gel. The reaction was buffered with 0.13M Tris.Cl (pH 8.5) and included 0.6 mM epinephrine, 2.1 mM reduced glutathione, and 0.09 mM EDTA, which favored PGE2 as the primary product [C. […] Miles bovine seminal vesicle prostaglandin synthetase (20 μg), inhibitor, cofactor, and buffer were mixed and preincubated for two minutes at 37° C. The substrate was added to initiate the reaction which was run for 10 minutes. The reaction was stopped by freezing in a slurry of dry ice/ethanol. All reactions were run in duplicate. Inhibitors were bead-milled overnight and diluted in reaction buffer (0.2M Tris.Cl, pH 8.5). Inhibition was calculated by the following formula: [formula]

[4] = fasted female white mice, phenylquinone i.p.
[5] = oral, 7 daily doses, ED50 % decrease from control paw volume, uninjected left hind paw

Compound | ED50 [1] [mg/kg] | Adjuvant Arthritis, decrease in paw volume from controls at dose indicated ([2]; oral, 7 daily doses) [%] | ED50 [1, 4] [mg/kg] | IC50 [3] [µM] | ED50 [2, 5] [mg/kg] | PQW ED50 [1, 4] [mg/kg] | ED50 ([2]; po) [mg/kg]
CC(=O)Oc1ccccc1C(=O)O [Aspirin, aspirin, reference compound] | 135 | – | – | – | – | – | –
FC(F)(F)Sc1nc2c([nH]1)/C(=C/c1ccccc1)c1ccccc1-2 [Example 2] | – | 12 | 35 | < 75 | – | – | –
O=S(=O)(c1nc2c([nH]1)/C(=C\c1ccccc1)c1ccccc1-2)C(F)(F)F [Example 3] | – | 37 | > 81 | 0.93 | – | – | –
COc1ccc(CC2c3ccccc3-c3nc(S(=O)(=O)C(F)(F)F)[nH]c32)cc1 (stereo not drawn) [Example 4, 1,8-DIHYDRO(OR 3,8-DIHYDRO)-2-(TRIFLUOROMETHYLSULFONYL)-8-[(4-METHOXYPHENYL)METHYL]INDENO[1,2-d]-IMIDAZOLE] | – | – | – | 1.2 | – | – | –
O=S(=O)(c1nc2c([nH]1)/C(=C/c1ccccc1)c1ccccc1-2)C(F)(F)F [Example 5, 1,8-Dihydro(or 3,8-dihydro)-2-(trifluoromethylsulfonyl)-8-(phenylmethylene)indeno[1,2-d]imidazole, E isomer] | – | – | 1 | 0.023 | 5.3 | – | –
COc1ccc(C=C2c3ccccc3-c3nc(SC(F)(F)F)[nH]c32)cc1 [Example 7] | – | 39 | > 108 | 0.58 | – | – | –
COc1ccc(C=C2c3ccccc3-c3nc(S(=O)(=O)C(F)(F)F)[nH]c32)cc1 [Example 8, 1,8-dihydro(or 3,8-dihydro)-2-(trifluoromethylsulfonyl)-8-[(4-methoxyphenyl)methylene]-indeno[1,2-d]imidazole, Z isomer] | – | 5 | – | 0.31 | – | > 36 | –
COc1ccc(C=C2c3ccccc3-c3nc(S(=O)(=O)C(F)(F)F)[nH]c32)cc1 [Example 9, 1,8-Dihydro(or 3,8-dihydro)-2-(trifluoromethylsulfonyl)-8-[(4-methoxyphenyl)methylene]indeno[1,2-d]imidazole, E isomer] | – | – | – | 0.02 | 1.95 | 1.44 | –
Fc1ccc(C=C2c3ccccc3-c3nc(SC(F)(F)F)[nH]c32)cc1 [Example 11] | – | 39 | 21 | 2.7 | – | – | –
[O-][S+](c1nc2c([nH]1)C(=Cc1ccc(F)cc1)c1ccccc1-2)C(F)(F)F (stereo not drawn) [Example 12, 1,8-Dihydro(or 3,8-dihydro)-2-(trifluoromethylsulfinyl)-8-[(4-fluorophenyl)methylene]indeno[1,2-d]imidazole, E isomer] | – | 48 | 0.76 | 0.48 | – | – | –
O=S(=O)(c1nc2c([nH]1)C(=Cc1ccc(F)cc1)c1ccccc1-2)C(F)(F)F [Example 13] | – | – | 53.6 | 0.42 | 9.8 | – | –
CC(C)Cc1ccc(C(C)C(=O)O)cc1 (stereo not drawn) [Ibuprofen, ibuprofen, reference compound] | – | – | 10 | – | 80 | – | –
COc1ccc2c(c1)c(CC(=O)O)c(C)n2C(=O)c1ccc(Cl)cc1 [Indomethacin, indomethacin, reference compound] | 0.35 | – | – | – | – | – | 0.25
CCCCC1C(=O)N(c2ccccc2)N(c2ccccc2)C1=O [Phenylbutazone, phenylbutazone, reference compound] | – | – | 80 | 270 | 10 | – | –
